The test system of the test is BDF1 mice, P388 leukemia ip, median survival T/C. As to the kind of experiment: NCI In Vivo Anticancer Drug Screen. Data for tumor model P388 Leukemia (intraperitoneal) in B6D2F1 (BDF1) mice. To be noted: endpoint: median survival time, higher = longer survival. In a few lines:
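Mice carrying the transplantable tumour receive compound or vehicle. Survival is followed in each arm, and the treated measure is divided by the vehicle measure.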

Where [1] appears, read: dose: 100.0 mg/kg/injection, schedule: Q01DX009 (ip), vehicle: saline with Tween-80.
[2] abbreviates: dose: 100.0 mg/kg/injection, schedule: Q04DX003 (ip), vehicle: saline with Tween-80.
Where [3] appears, read: dose: 200.0 mg/kg/injection, schedule: Q01DX009 (ip), vehicle: saline with Tween-80.
[4] abbreviates: dose: 200.0 mg/kg/injection, schedule: Q04DX003 (ip), vehicle: saline with Tween-80.
Setting [5] is: dose: 400.0 mg/kg/injection, schedule: Q04DX003 (ip), vehicle: saline with Tween-80.
The mark [6] stands for this setting: dose: 25.0 mg/kg/injection, schedule: Q01DX009 (ip), vehicle: saline with Tween-80.
The mark [7] stands for this setting: dose: 50.0 mg/kg/injection, schedule: Q01DX009 (ip), vehicle: saline with Tween-80.

The text below walks through data of PubChem BioAssay AID328 (DTP/NCI, 2004).

Structures are written as SMILES. “And” between values parts separate entries of the source, which are not always exact repeats. Equal entries are not always repeated. Toxic doses and inconclusive results are not listed.

For `FC(F)(F)c1nc(Cl)nc(Cl)c1Cl`, the T/C runs as follows: (dose: 3.12 mg/kg/injection, schedule: Q01DX005 (ip), vehicle: saline) 105 % of control; (dose: 6.25 mg/kg/injection, schedule: Q01DX005 (ip), vehicle: saline) 100 % of control; (dose: 12.5 mg/kg/injection, schedule: Q01DX005 (ip), vehicle: saline) 110 % of control.

In the case of `Cc1cc(=O)[nH]c(N(CCO)CCO)n1`, the T/C runs as follows: under setting [1], 100 % of control; under setting [2], 100 % of control; under setting [3], 96 % of control; under setting [4], 95 % of control; (dose: 400.0 mg/kg/injection, schedule: Q01DX009 (ip), vehicle: saline with Tween-80) 88 % of control; under setting [5], 90 % of control.

In the case of `O=C1c2ccccc2C(=O)N1CC/C=C/c1ccc([N+](=O)[O-])cc1Cl`, the T/C is, setting by setting: under setting [2], 100 % of control; under setting [4], 100 % of control; under setting [5], 100 % of control.

As for `CN1C(=O)c2ccccc2CC12c1ccccc1C(=O)N2C` (configuration not stated), the T/C (dose: 50.0 mg/kg/injection, schedule: Q01DX005 (ip), vehicle: saline with Tween-80) is 86 % of control and the T/C (dose: 200.0 mg/kg/injection, schedule: Q01DX005 (ip), vehicle: saline with Tween-80) was 86 % of control.

On to `O=c1[nH]c(=O)n(C2CC(O)C(CO)O2)cc1I` (configuration not stated), for which the T/C is, setting by setting: (dose: 10.0 mg/kg/injection, schedule: Q01DX009 (ip), vehicle: saline with Tween-80) 109 % of control; (dose: 20.0 mg/kg/injection, schedule: Q01DX009 (ip), vehicle: saline with Tween-80) 107 % of control; (dose: 40.0 mg/kg/injection, schedule: Q01DX009 (ip), vehicle: saline with Tween-80) 92 % of control and 109 % of control; (dose: 80.0 mg/kg/injection, schedule: Q01DX009 (ip), vehicle: saline with Tween-80) 106 % of control and 118 % of control; (dose: 320.0 mg/kg/injection, schedule: Q01DX009 (ip), vehicle: saline with Tween-80) 90 % of control.

On to `CCCCCCCCCCCCCCCCCC[n+]1cccc(C(=O)N2CCOCC2)c1`, for which the T/C reads like this: (dose: 1.0 mg/kg/injection, schedule: Q01DX009 (ip), vehicle: saline with Tween-80) 108 % of control; (dose: 2.0 mg/kg/injection, schedule: Q01DX009 (ip), vehicle: Klucel (hydroxypropylcellulose) (HPC)) 100 % of control; (dose: 2.0 mg/kg/injection, schedule: Q01DX009 (ip), vehicle: saline with Tween-80) 95 % of control; (dose: 4.0 mg/kg/injection, schedule: Q01DX009 (ip), vehicle: Klucel (hydroxypropylcellulose) (HPC)) 90 % of control; (dose: 4.0 mg/kg/injection, schedule: Q01DX009 (ip), vehicle: saline with Tween-80) 100 % of control; (dose: 8.0 mg/kg/injection, schedule: Q01DX009 (ip), vehicle: Klucel (hydroxypropylcellulose) (HPC)) 109 % of control. Moreover, the T/C is 108 % of control (dose: 8.0 mg/kg/injection, schedule: Q01DX009 (ip), vehicle: saline with Tween-80); 104 % of control (dose: 16.0 mg/kg/injection, schedule: Q01DX009 (ip), vehicle: Klucel (hydroxypropylcellulose) (HPC)); 121 % of control (dose: 16.0 mg/kg/injection, schedule: Q01DX009 (ip), vehicle: saline with Tween-80); 100 % of control (dose: 25.0 mg/kg/injection, schedule: Q04DX003 (ip), vehicle: Klucel (hydroxypropylcellulose) (HPC)); 113 % of control (dose: 32.0 mg/kg/injection, schedule: Q01DX009 (ip), vehicle: Klucel (hydroxypropylcellulose) (HPC)); 109 % of control (dose: 50.0 mg/kg/injection, schedule: Q04DX003 (ip), vehicle: Klucel (hydroxypropylcellulose) (HPC)). Also, the T/C (dose: 100.0 mg/kg/injection, schedule: Q04DX003 (ip), vehicle: Klucel (hydroxypropylcellulose) (HPC)) was 90 % of control.

Consider `C1CCC(=[N+]2CCCC2)CC1`, for which the T/C (dose: 50.0 mg/kg/injection, schedule: Q01DX009 (ip), vehicle: saline) is 100 % of control; the T/C (dose: 100.0 mg/kg/injection, schedule: Q01DX009 (ip), vehicle: saline) is 100 % of control; the T/C (dose: 100.0 mg/kg/injection, schedule: Q04DX003 (ip), vehicle: saline) was 109 % of control; the T/C (dose: 200.0 mg/kg/injection, schedule: Q01DX009 (ip), vehicle: saline) is 112 % of control; the T/C (dose: 200.0 mg/kg/injection, schedule: Q04DX003 (ip), vehicle: saline) was 100 % of control.

In the case of `CCN1C(=O)CN=C(c2ccccn2)c2cc(Cl)ccc21`, the T/C is 90 % of control (dose: 100.0 mg/kg/injection, schedule: Q01DX001 (ip), vehicle: Klucel (hydroxypropylcellulose) (HPC)); 104 % of control (dose: 200.0 mg/kg/injection, schedule: Q01DX001 (ip), vehicle: Klucel (hydroxypropylcellulose) (HPC)); 95 % of control (dose: 400.0 mg/kg/injection, schedule: Q01DX001 (ip), vehicle: Klucel (hydroxypropylcellulose) (HPC)).

As for `CC1(C)N=C(N)N=C(N)N1c1ccc(CCCCc2ccc(S(=O)(=O)F)cc2Cl)c(Cl)c1`, the T/C reads like this: (dose: 5.0 mg/kg/injection, schedule: Q01DX009 (ip), vehicle: saline with Tween-80) 157 % of control; (dose: 7.5 mg/kg/injection, schedule: Q01DX009 (ip), vehicle: saline with Tween-80) 150 % of control and 166 % of control; (dose: 8.0 mg/kg/injection, schedule: Q04DX003 (ip), vehicle: saline with Tween-80) 168 % of control; (dose: 11.5 mg/kg/injection, schedule: Q01DX009 (ip), vehicle: saline with Tween-80) 200 % of control; (dose: 12.0 mg/kg/injection, schedule: Q04DX003 (ip), vehicle: saline with Tween-80) 186 % of control; (dose: 17.0 mg/kg/injection, schedule: Q01DX009 (ip), vehicle: saline with Tween-80) 188 % of control and 191 % of control. Moreover, the T/C was 200 % of control (dose: 18.0 mg/kg/injection, schedule: Q04DX003 (ip), vehicle: saline with Tween-80); 208 % of control and 220 % of control under setting [6]; 200 % of control (dose: 26.0 mg/kg/injection, schedule: Q04DX003 (ip), vehicle: saline with Tween-80); 195 % of control (dose: 26.5 mg/kg/injection, schedule: Q04DX003 (ip), vehicle: saline with Tween-80); 176 % of control (dose: 37.0 mg/kg/injection, schedule: Q01DX009 (ip), vehicle: saline with Tween-80); 209 % of control (dose: 40.0 mg/kg/injection, schedule: Q04DX003 (ip), vehicle: saline with Tween-80). Besides, the T/C is 241 % of control under setting [7]; 176 % of control (dose: 60.0 mg/kg/injection, schedule: Q04DX003 (ip), vehicle: saline with Tween-80); 209 % of control (dose: 88.0 mg/kg/injection, schedule: Q04DX003 (ip), vehicle: saline with Tween-80); 180 % of control (dose: 90.0 mg/kg/injection, schedule: Q04DX003 (ip), vehicle: saline with Tween-80); 116 % of control under setting [1]; 272 % of control (dose: 133.0 mg/kg/injection, schedule: Q04DX003 (ip), vehicle: saline with Tween-80). Under setting [4], the T/C was 272 % of control.

`CC(C#N)(Nc1ccccc1)c1ccco1` (configuration not stated): the T/C by setting is: (dose: 6.25 mg/kg/injection, schedule: Q04DX003 (ip), vehicle: other) 100 % of control; (dose: 12.5 mg/kg/injection, schedule: Q04DX003 (ip), vehicle: other) 100 % of control; (dose: 25.0 mg/kg/injection, schedule: Q04DX003 (ip), vehicle: other) 100 % of control.

As for `Cc1[nH]c(=O)[nH]c(=O)c1C`, the T/C was 104 % of control (dose: 50.0 mg/kg/injection, schedule: Q01DX009 (ip), vehicle: Klucel (hydroxypropylcellulose) (HPC)); 109 % of control (dose: 100.0 mg/kg/injection, schedule: Q01DX009 (ip), vehicle: Klucel (hydroxypropylcellulose) (HPC)); 104 % of control (dose: 200.0 mg/kg/injection, schedule: Q01DX009 (ip), vehicle: Klucel (hydroxypropylcellulose) (HPC)).

As for `O=C1O/C(=C2\OCc3ccccc32)c2ccccc21`, the T/C is, setting by setting: under setting [6], 100 % of control; under setting [7], 98 % of control; under setting [1], 98 % of control; under setting [3], 96 % of control.

In the case of `CCOC(=O)c1c(C(=O)OCC)c(C)n(NC(=S)NC)c1C`, the T/C (dose: 75.0 mg/kg/injection, schedule: Q01DX009 (ip), vehicle: saline with Tween-80) was 103 % of control; the T/C (dose: 150.0 mg/kg/injection, schedule: Q01DX009 (ip), vehicle: saline with Tween-80) is 89 % of control; the T/C (dose: 300.0 mg/kg/injection, schedule: Q01DX009 (ip), vehicle: saline with Tween-80) is 93 % of control.
